Experimental data: PubChem BioAssay (NCI)
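How tested: cells in 96-well plates exposed to compound for 48 hours at five concentrations. At the GI50, growth is halved. TGI denotes the concentration required for complete inhibition of growth.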

Experiments:
Assay in all cases: NCI tumour cell line growth inhibition, 48 h
786-0 renal = system: 786-0 renal
EKVX NSCLC = system: EKVX NSCLC
HOP-62 NSCLC = system: HOP-62 NSCLC
HOP-92 NSCLC = system: HOP-92 NSCLC
HS 578T breast = system: HS 578T breast
HT29 colon = system: HT29 colon
MDA-MB-231 breast = system: MDA-MB-231 breast
SN12C renal = system: SN12C renal
TK-10 renal = system: TK-10 renal
U251 CNS = system: U251 CNS

| Structure (SMILES) | TGI (786-0 renal) [µM] | TGI (EKVX NSCLC) [µM] | TGI (HOP-62 NSCLC) [µM] | TGI (HOP-92 NSCLC) [µM] | TGI (HS 578T breast) [µM] | TGI (HT29 colon) [µM] | TGI (MDA-MB-231 breast) [µM] | TGI (SN12C renal) [µM] | TGI (TK-10 renal) [µM] | TGI (U251 CNS) [µM] | GI50 (786-0 renal) [µM] | GI50 (EKVX NSCLC) [µM] | GI50 (HOP-62 NSCLC) [µM] | GI50 (HOP-92 NSCLC) [µM] | GI50 (HS 578T breast) [µM] | GI50 (HT29 colon) [µM] | GI50 (MDA-MB-231 breast) [µM] | GI50 (SN12C renal) [µM] | GI50 (TK-10 renal) [µM] | GI50 (U251 CNS) [µM] |
| --- | --- | --- | --- | --- | --- | --- | --- | --- | --- | --- | --- | --- | --- | --- | --- | --- | --- | --- | --- | --- |
| COc1ccccc1-c1cc(=O)c2ccc(OC)c(OC)c2o1 | > 100 | > 100 | > 100 | > 100 | > 100 | > 100 | > 100 | > 100 | > 100 | > 100 |  |  |  |  |  |  |  |  |  |  |
| COc1ccc2c(c1)/C(=N/OC(C)=O)c1c-2c(=O)[nH]c2ccccc12 | 43.6 | 21.6 | 34.4 | 38.3 | 31.4 | 32.8 | 27.3 | 31 | 58 | 30.1 | 15.9 | 6.38 | 18 | 11.1 | 8.88 | 15.6 | 13 | 16.2 | 15.2 | 15.5 |
| COc1ccc(N(/C=C/C(=O)C(F)(F)F)CC(=O)c2ccc(Cl)c(Cl)c2)cc1 | 29.5 | 27.6 | 30.9 | 41.8 | 14.6 | > 100 | 38.6 | 33.5 | 27.1 | 25.3 | 15.5 | 13.2 | 16.9 | 13.2 | 4.81 | 29.8 | 14.4 | 14.5 | 13.7 | 12.2 |
| NC1=Nc2cc(OCCCN3Cc4ccccc4C3)c(OCC3CC3)cc2C12CCCC2 | 3.77 | 11.8 | 11.5 | 3.14 | 17.7 | 6.53 | 3.65 | 15.2 | 8.16 | 3.88 | 1.69 | 3.18 | 3.45 | 0.718 | 2.83 | 1.95 | 1.62 | 3.85 | 2.31 | 1.8 |
| C=C1C(=O)OC2CC(C)C3C=CC(=O)C3CC12 (stereo not given) | 3.66 | 26.3 | 31.8 | 4.04 | 6.53 | 4.83 | 3.74 | 5.19 | 8.07 | 20.6 |  |  |  |  |  |  |  |  |  |  |
| NS(=O)(=O)c1ccc(NC(=O)c2cccc3cc4ccccc4nc23)cc1 | > 100 | > 100 | > 100 | > 100 | > 100 | > 100 | > 100 | > 100 | > 91.2 | > 100 |  |  |  |  |  |  |  |  |  |  |
| CS(=O)(=O)OCCN(CCOS(C)(=O)=O)c1ccc(C=O)cc1 | 7.86 | 25.4 | 24 | 44.5 | 58 | 57.9 | 67.6 | 41.3 | 17 | 45.7 |  |  |  |  |  |  |  |  |  |  |
| COc1ccc2c(c1)/C(=C/c1cc(OC)c(OC)c(OC)c1)C(=O)N2C | 23.7 | > 100 | 97.6 | > 100 | 4.61 | > 88.1 | > 27.1 | > 44.5 | > 31.6 | 4.83 | 3.82 | 5.1 | 4.63 | 3.01 | 1.43 | 2.9 | 2.81 | 3.44 | 3.56 | 1.94 |
| COc1ccc2c(c1)C1(C(=O)N2)C(C#N)=C(c2ccccc2)Nc2c1c(-c1ccccc1)nn2-c1ccccc1 (stereo not given) | 4.94 | 22.2 | 7.07 | 6.34 | 19.3 | 5.82 | 5.81 | 3.71 | 7.49 | 7.12 | 2.03 | 4.44 | 2.28 | 2.34 | 4.1 | 2.34 | 2.33 | 1.94 | 2.41 | 2.8 |
| COc1ccc(N(C)c2c3ccccc3nc3[nH]c4ccccc4c23)cc1 | 1.9 | 4.12 | 1.79 | 4.49 | 11 | 10.3 | 2.05 | 1.53 | 1.63 | 2.39 | 0.444 | 1.06 | 0.407 | 1.07 | 2.55 | 0.617 | 0.616 | 0.392 | 0.681 | 0.525 |
